According to patent US20080107722A1, “Method For Loading Multiple Agents Into Delivery Vehicles” (priority 2004, published 2008):

Experiments:
[1] = Simultaneous loading of gemcitabine and doxorubicin into preformed liposomes; type: physicochemical; conditions: for loading and retention in liposomes: 60° C., DSPC/DSPG/Cholesterol 70:20:10, FIG. 4C; for simultaneous loading in high cholesterol-containing liposomes: DMPC/Cholesterol liposomes
Procedure: (§1) At various time points after initiation of drug loading, aliquots were removed and passed through a Sephadex® G-50 spin column to separate free from encapsulated drug. To a specified volume of eluant, Triton X-100 or N-ocyl beta-D-glucopyranoside (OGP) was added to solubilize the liposomes. Following addition of detergent, the mixture was heated to the cloud point of the detergent and allowed to cool to room temperature before measurement of the absorbance or fluorescence. Drug concentrations were calculated by comparison to a standard curve. Lipid levels were measured by liquid scintillation counting.
Gemcitabine and doxorubicin were loaded into DSPC/DSPG/Cholesterol liposomes at 37° C., 50° C. and 60° C. […] The lipid films were hydrated in 100 mM Cu(II)gluconate, adjusted to pH 7.4 with triethanolamine (TEA) and extruded at 70° C. The liposomes were buffer exchanged into HBS, pH 7.4 by crossflow dialysis. Prior to addition of drugs, the liposomes were preheated to the appropriate loading temperature for one minute. Gemcitabine (with tracer amounts of ^3H-gemcitabine) and doxorubicin were combined then added simultaneously to the pre-heated liposomes. Gemcitabine was added to a drug concentration of 30 μmol/mL and doxorubicin was added to a drug concentration of 33 μmol/mL. […] Aliquots were removed and analyzed for drug and lipid content at designated time intervals. The extent of doxorubicin loading was determined spectrophotometrically and gemcitabine and lipid levels were determined by liquid scintillation counting.

[2] = co-loaded with mitoxantrone in a single liposome; cited from earlier work
[3] = Simultaneous loading of irinotecan and floxuridine into low cholesterol DSPC/DSPG/Cholesterol liposomes (data not shown); type: physicochemical; conditions: low cholesterol-containing DSPC/DSPG/Cholesterol liposomes
[4] = Simultaneous loading of FUDR and cpt-11 into DSPC/Cholesterol (high-cholesterol) liposomes; type: physicochemical; conditions: 50° C.; for loading in liposomes: DSPC/Cholesterol, 100 mM Cu(II)gluconate pH 7.0; for drug ratio of FUDR-to-cpt-11 during the course of the experiment: FIG. 6
Procedure: as §1
Lipid films of DSPC/Cholesterol at a mole ratio of 55:45 were prepared as previously described and then hydrated in 100 mM Cu(II)gluconate, adjusted to pH 7.0 with triethanolamine (TEA). The liposomes were buffer exchanged into SPE, pH 7.0. Prior to addition of drugs, the liposomes were preheated to 50° C. for one minute. FUDR (with tracer amounts of ^3H-FUDR) and cpt-11 were combined then added simultaneously to the pre-heated liposomes. FUDR was added to a final drug concentration of 110 μmol/mL and cpt-11 was added to a final drug concentration of 7.5 μmol/mL. The liposomes and drugs were incubated for one hour to allow for the passive uptake of FUDR concurrent with the active uptake of Irinotecan. Aliquots were removed and analyzed for drug and lipid content at designated time intervals. The extent of cpt-11 loading was determined spectrophotometrically and FUDR and lipid levels were determined by liquid scintillation counting.

[5] = passive then Na+/K+ gradient with valinomycin; cited from earlier work
[6] = Simultaneous loading of FUDR and daunorubicin into preformed DSPC/DSPG/Cholesterol liposomes; type: physicochemical; conditions: 50° C.; for loading in liposomes: 100 mM Cu(II)gluconate pH 7.0, FIG. 3; for retention during the course of the experiment: FIG. 3
Procedure: as §1
FUDR and daunorubicin were loaded at 50° C. into pre-formed DSPC/DSPG/Cholesterol liposomes (70:20:10) containing 100 mM Cu(II)gluconate adjusted to pH 7.0 with triethanolamine (TEA). The liposomes were buffer exchanged into 300 mM sucrose, 40 mM phosphate, 1 mM EDTA, pH 7.0 by crossflow dialysis to remove any copper(II)gluconate from the extraliposomal solution. Prior to addition of drugs, the liposomes were diluted in SPE and preheated at 50° C. for one minute. FUDR (with trace amounts of ^3H-FUDR) and daunorubicin were combined then added simultaneously to the pre-heated liposomes. FUDR was added at a drug concentration of 60 μmol/mL and daunorubicin was added at a drug-to-lipid mole ratio of 0.1:1. […] Aliquots were removed and analyzed for drug and lipid content at designated time intervals. The extent of daunorubicin loading was determined spectrophotometrically and FUDR and lipid levels were determined by liquid scintillation counting.

[7] = Simultaneous loading of daunorubicin and cytarabine into DMPC/Cholesterol liposomes by citrate pH-gradient; type: physicochemical; conditions: 45° C. versus room temperature or 40° C., 300 mM citrate pH 4 inside, FIG. 5
Procedure: as §1
Aliquots were removed and analyzed for drug and lipid content at designated time intervals.

[8] = Simultaneous loading of cytarabine and daunorubicin into DSPC/DSPG/Cholesterol liposomes, effect of internal Cu(II)gluconate concentration; type: physicochemical; conditions: 50° C.; for daunorubicin loading (percent encapsulation): FIG. 2B
Procedure: (§2) Lipids were dissolved in chloroform:methanol:water (95:4:1 vol/vol/vol) and subsequently dried under a stream of nitrogen gas and placed in a vacuum pump to remove solvent. Unless otherwise specified, trace levels of radioactive lipid ^14C-DPPC was added to quantify lipid during the formulation process. The resulting lipid film was placed under high vacuum for a minimum of 2 hours. The lipid film was hydrated in the solution indicated to form multilamellar vesicles (MLVs). The resulting preparation was extruded 10 times through stacked polycarbonate filters with an extrusion apparatus (Lipex Biomembranes, Vancouver, BC) to achieve a mean liposome size between 80 and 150 nm. All constituent lipids of liposomes are reported in mole %.
as §1
Lipid films of DSPC/DSPG/Cholesterol at a mole ratio of 70:20:10 were prepared as described above in the method section. The lipid films were hydrated in the designated Cu(II)gluconate concentration and adjusted to pH 7.0 with triethanolamine (TEA). The liposomes were buffer exchanged into 300 mM sucrose, 20 mM sodium phosphate, pH 7.0 by crossflow dialysis to remove any copper(II)gluconate from the extraliposomal solution. Prior to addition of drugs, the liposomes were diluted in SPE and preheated at 50° C. for one minute. […] Aliquots were removed and analyzed for drug and lipid content at designated time intervals. The extent of daunorubicin loading was determined spectrophotometrically and cytarabine and lipid levels were determined by liquid scintillation counting.

[9] = Simultaneous loading of cytarabine and daunorubicin into preformed DSPC/DSPG/Cholesterol (70:20:10) liposomes, effect of temperature; type: physicochemical; conditions: for loading and retention in liposomes: 40° C., 100 mM Cu(II)gluconate pH 7.4 inside, FIG. 1A
Procedure: as §2, §1
Lipid films of DSPC/DSPG/Cholesterol at a mole ratio of 70:20:10 were prepared as described above in the method section. The lipid films were hydrated in 100 mM Cu(II)gluconate adjusted to pH 7.4 with triethanolamine (TEA) and extruded at 70° C. The liposomes were buffer exchanged into 300 mM sucrose, 20 mM phosphate, 1 mM EDTA (SPE), pH 7.4 by crossflow dialysis to remove any copper(II)gluconate from the extraliposomal solution. Prior to addition of drugs, the liposomes were preheated to the appropriate loading temperature for one minute. […] Aliquots were removed and analyzed for drug and lipid content at designated time intervals.

[10] = 37° C., DSPC/DSPG/Cholesterol 70:20:10, FIG. 4A
[11] = 50° C., DSPC/DSPG/Cholesterol 70:20:10, FIG. 4B

SMILES: COc1cccc2c1C(=O)c1c(O)c3c(c(O)c1C2=O)C[C@@](O)(C(=O)CO)C[C@@H]3O[C@H]1C[C@H](N)[C@H](O)[C@H](C)O1 [doxorubicin]
- loading in liposomes [1, 10]: did not load to sufficient levels
- loading in liposomes [1, 11]: superior to the gemcitabine loading
- loading and retention in liposomes [1]: Optimal loading and retention
- simultaneous loading in high cholesterol-containing liposomes [1]: hindered by aggregation

SMILES: CC[C@]1(O)C[C@H]2CN(CCc3c([nH]c4ccccc34)[C@@](C(=O)OC)(c3cc4c(cc3OC)N(C=O)[C@H]3[C@@](O)(C(=O)OC)[C@H](OC(C)=O)[C@]5(CC)C=CCN6CC[C@]43[C@@H]65)C2)C1 [vincristine]
- release of entrapped drug in vivo [2]: rapid release

SMILES: Nc1ccn([C@@H]2O[C@H](CO)[C@@H](O)C2(F)F)c(=O)n1 [gemcitabine, Gemcitabine]
- loading in liposomes [1, 10]: could load effectively
- loading in liposomes [1, 11]: load to minimal levels and then quickly leaks
- loading and retention in liposomes [1]: Optimal loading and retention
- simultaneous loading in high cholesterol-containing liposomes [1]: hindered by aggregation

SMILES: CCc1c2c(nc3ccc(OC(=O)N4CCC(N5CCCCC5)CC4)cc13)-c1cc3c(c(=O)n1C2)COC(=O)[C@]3(O)CC [cpt-11, irinotecan]
- loading in liposomes [3]: sufficient
- loading in liposomes [4]: effectively loaded
- drug ratio of FUDR-to-cpt-11 during the course of the experiment [4]: maintained at a sufficient level

SMILES: CN(Cc1cnc2nc(N)nc(N)c2n1)c1ccc(C(=O)N[C@@H](CCC(=O)O)C(=O)O)cc1 [methotrexate]
- available drug encapsulated [5]: 33%

SMILES: COc1cccc2c1C(=O)c1c(O)c3c(c(O)c1C2=O)C[C@@](O)(C(C)=O)C[C@@H]3O[C@H]1C[C@H](N)[C@H](O)[C@H](C)O1 [daunorubicin]
- loading in liposomes [6]: loaded to sufficient levels
- retention during the course of the experiment [6]: well maintained
- simultaneous loading efficiency [7]: more efficient
- daunorubicin loading (percent encapsulation) ([8]; 25 mM copper gluconate): compromised
- daunorubicin loading (percent encapsulation) ([8]; 100 mM, 75 mM and 50 mM copper gluconate): sufficient
- loading and retention in liposomes [9]: efficiently loaded and retained
- loading in liposomes ([9]; 50° C., FIG. 1B): load to adequate levels
- retention in liposomes during the experiment ([9]; 50° C., FIG. 1B): effectively retained
- loading in liposomes ([9]; 60° C., FIG. 1C): loads at this temperature
- retention in liposomes ([9]; 60° C., FIG. 1C): not well-retained

SMILES: Nc1ccn([C@@H]2O[C@H](CO)[C@@H](O)[C@@H]2O)c(=O)n1 [cytarabine]
- cytarabine loading during simultaneous uptake of daunorubicin ([8]; 25, 50, 75 and 100 mM Cu(II)gluconate, FIG. 2A): sufficient
- extent of cytarabine loading ([8]; 25 and 50 mM versus 75 mM and 100 mM Cu(II)gluconate, FIG. 2A): improved
- loading and retention in liposomes [9]: less than desirable
- loading in liposomes ([9]; 50° C., FIG. 1B): load to adequate levels
- retention in liposomes during the experiment ([9]; 50° C., FIG. 1B): effectively retained
- loading in liposomes ([9]; 60° C., FIG. 1C): compromised compared to loading at 50 °C

SMILES: O=c1[nH]c(=O)n([C@H]2C[C@H](O)[C@@H](CO)O2)cc1F [FUDR, Floxuridine]
- loading in liposomes [6]: loaded to sufficient levels
- retention during the course of the experiment [6]: well maintained
- loading in liposomes [3]: sufficient
- loading in liposomes [4]: effectively loaded
- drug ratio of FUDR-to-cpt-11 during the course of the experiment [4]: maintained at a sufficient level
